One compound from paper PMC6222847, “Application of HPCCC Combined with Polymeric Resins and HPLC for the Separation of Cyclic Lipopeptides Muscotoxins A–C and Their Antimicrobial Activity” (Molecules : A Journal of Synthetic Chemistry and Natural …, 2018) can be followed below.

The series is described as follows: Partition coefficient (K) in two-phase HPCCC solvent systems. In kind it is physicochemical. The following applies: 2 mg extract in 2 mL (1 mL per phase), HPLC-ESI-HRMS. The source says: When working with HPCCC, the search for a proper two-phase solvent system has been informed to represent the major part of the work involved in the HPCCC separation. An appropriate two-phase solvent system for HPCCC has to provide a good partition coefficient (0.5 ≤ K ≤ 2.5) for the target compound. […] Additionally, for achieving a good resolution between two closely eluting peaks, the separation factor (α) between the two compounds (α = K2/K1, K2 > K1) should be greater than 1.5 [14, 26]. It is well described that compounds with smaller K values show a poor resolution because they elute closer to the solvent front. On the contrary, those compounds with larger K value are better separated but elute as wider peaks and at later elution times. In the present study, the capacity of different two-phase solvent systems (Table 1) to provide suitable K values of the compounds 1–3 was investigated. The K value is frequently estimated by using HPLC with UV detection, which is calculated by dividing the peak area of the target compound in the upper phase by that of the peak area of the same target compound in the lower phase. However, given that UV chromatogram provided insufficient peak areas for minor muscotoxins, the MS detector was thus used to estimate the K values. By using this approach, the peak area of the molecular ions corresponding to the target compounds were selectively monitored from the base peak chromatogram. As presented in the Table 1, the solvent system 10 (n-hexane, ethyl acetate, ethanol, and water in a ratio of 1:5:1:5) gave suitable K values and a proper separation factor (α) for compounds 2 and 3, as well as a short settling time. […] The improvement of the K value of compound 1 could be achieved by finding out a new solvent system or by modifying the composition of the already selected solvent system. In the present study, the system 10 was acidified by adding acetic acid leading to the system 11 (n-hexane, ethyl acetate, ethanol, water, and acetic acid, 1:5:1:5:1). […] Although the partition coefficients of the target compounds in systems 10 and 11 are strongly correlated, the system 10 ensured a sufficient selectivity (α = 1.5) between the compounds 2 and 3. […] In HPCCC, it is very well established that when the retention of stationary phase is increased, a good chromatographic resolution is achieved. A reduced flow rate of the mobile phase and a high rotational speed of the column favor the retention of the stationary phase inside the HPCCC column. In this study, the flow rate of the mobile phase in the first step and second step of the HPCCC operations was 1 mL/min and the rotational speed was set at 1200 rpm. Moreover, it was observed that a good resolution between the compounds 2 and 3 was achieved when injecting 100 mg of enriched extract.
Different two-phase solvent systems were prepared using n-hexane, ethyl acetate, ethanol, water, and acetic acid in different proportions (Table 1). The prepared solvent systems were investigated for their capacity to provide suitable partition coefficients (K) of the target compounds. In addition, given that the settling time as well as the density difference between the upper and lower phases of each two-phase solvent system are parameters associated with the retention of stationary phase in the column, they were thus estimated and used as selection criteria. For estimating the partition coefficient (Table 1) of the target compound, 2 mg of extract containing the target compounds was dissolved in 2 mL of a given two-phase solvent system (1 mL per each phase). The test tube containing the sample solution was shaken vigorously, and then left, to equilibrate the two phases, for 20 min. Equal volumes of each phase were then analyzed by HPLC-ESI-HRMS to obtain the partition coefficients (K), which were calculated by dividing the peak area of the target compound in the upper phase by the peak area of compound in the lower phase.

*1 amine or outer side, *2 acyl side, *3 side chain or, on linkers, in order; H or OH if unused. Where a SMILES comes first, the peptide text is derived from it. [ ]: non-standard residue; d: D form. X1 = CCCCCC(O)CC(N[*:1])C(O)C(=O)[*:2]; d(aIle) = CC[C@H](C)[C@@H](N)C(=O)O; Dhb = C/C=C(\N)C(=O)O

As for `C/C=C1\NC(=O)[C@H](CO)NC(=O)[C@@H]([C@@H](C)CC)NC(=O)[C@H](Cc2ccccc2)NC(=O)[C@@H]2CCCN2C(=O)CNC(=O)[C@@H](CCC(N)=O)NC(=O)C(O)C(CC(O)CCCCC)NC(=O)[C@@H]2CCCN2C(=O)[C@@H]([C@@H](C)CC)NC(=O)[C@H](CO)NC1=O` (some centres unmarked) [compound 2, muscotoxin A] (cyclo([Dhb]S[d(aIle)]P[X1][dQ]GPF[d(aIle)]S)), the “Partition Coefficient (K) of Muscotoxins” value (solvent system 1, n-Hex–EtOH–H2O 10:5:5, shake test tube, equilibrated 20 min, K = peak area upper phase/lower phase) came to 0.03; the “Partition Coefficient (K) of Muscotoxins” value (solvent system 2, n-Hex–EtOAc–EtOH–H2O 9:1:5:5, shaken, 20 min, K = peak area UP/LP) turned out to be 0.03; the “Partition Coefficient (K) of Muscotoxins” value (solvent system 3, n-Hex–EtOAc–EtOH–H2O 8:2:5:5, shaken, 20 min, K = peak area UP/LP) was 0.01; the “Partition Coefficient (K) of Muscotoxins” value (solvent system 4, n-Hex–EtOAc–EtOH–H2O 7:3:5:5, shaken, 20 min, K = peak area UP/LP) is reported as 0.06; the “Partition Coefficient (K) of Muscotoxins” value (solvent system 5, n-Hex–EtOAc–EtOH–H2O 6:4:5:5, shaken, 20 min, K = peak area UP/LP) was 0.09; the “Partition Coefficient (K) of Muscotoxins” value (solvent system 6, n-Hex–EtOAc–EtOH–H2O 5:5:5:5, shaken, 20 min, K = peak area UP/LP) came to 0.01. The “Partition Coefficient (K) of Muscotoxins” value came out at 0.14 (solvent system 7, n-Hex–EtOAc–EtOH–H2O 4:5:4:5, shaken, 20 min, K = peak area UP/LP); 0.32 (solvent system 8, n-Hex–EtOAc–EtOH–H2O 3:5:3:5, shaken, 20 min, K = peak area UP/LP); 0.97 (solvent system 9, n-Hex–EtOAc–EtOH–H2O 2:5:2:5, shaken, 20 min, K = peak area UP/LP); 0.94 (solvent system 10, n-Hex–EtOAc–EtOH–H2O 1:5:1:5, shaken, 20 min, K = peak area UP/LP); 1.97 (solvent system 11, n-Hex–EtOAc–EtOH–H2O–AcOH 1:5:1:5:1, shaken, 20 min, K = peak area UP/LP).
